This note sets out measurements from patent US9303076B2, “Cell-penetrating peptides and uses thereof” (Hoffmann-La Roche Inc., priority 2010, dated 2016).

Test [1] concerns MCF-7 human breast cancer cells. Description: cell viability/apoptosis after 24 h exposure to pro-apoptotic peptides and CPP fusions. The conditions noted are these: MCF-7 cells, various concentrations. The test is classed as cell-based. On the procedure: MCF-7 human breast cancer cells were incubated for 24 h in the presence of various concentrations of NRTN (squares), Nur (circles), and NurNRTN (triangles) peptides. The respective amino acid sequences are given in the bottom panel. The experimental approach for assessing cell viability (and thus induction of apoptosis) was the same as in FIG. 3.
MCF-7 human breast cancer cells were incubated for 24 h in the presence of various concentrations of 4E-BP1 (circles), TAT4E-BP1 (squares), and NRTN4E-BP1 (triangles) peptides (top panel). […] The respective amino acid sequences are given in the bottom panel. The experimental approach for assessing cell viability (and thus induction of apoptosis) was the same as in FIG. 3.
Luminescence was analyzed in an InfiniteF200 luminescence reader.
Then, the cells were treated with a luminogenic peptide substrate in order to measure dead-cell protease activity, which is released from cells that have lost membrane integrity. […] The luminescence of this assay therefore represents dead cells. The 96 well plates were then analyzed in an InfiniteF200 luminescence reader.
Despite its proven ability to convert BCL-2 into a pro-apoptotic molecule, addition of the latter peptide (i.e. “Nor/Nur”; SEQ ID NO: 72) to cancer cells, even in high concentrations, is not sufficient to induce apoptosis, as the cellular target protein is located in the cytoplasm, but the peptide per se cannot effectively penetrate through the cell membrane to reach the target. In brief, MCF-7 breast cancer cells were incubated in the presence of this peptide for 24 h.
Subsequently, it was evaluated whether the NurNRTN fusion peptide is capable of penetrating cellular membranes and thereby induces pro-apoptotic activity within cells. MCF-7 human breast cancer cells were used as a model. The experimental approach was as described above (cf. Example 1). […] This effect was dose dependent: cytotoxicity increased with increasing concentrations of peptide.
Subsequently, it was evaluated whether the NRTN4E-BP1 fusion peptide is capable of penetrating cellular membranes and thereby induces pro-apoptotic activity within cells. MCF-7 human breast cancer cells were used as a model. The experimental approach was as described above (cf. Example 1). […] This effect was dose dependent: cytotoxicity increased with increasing concentrations of peptide.

The next test concerns the target T1, recombinant BCL2 (Homo sapiens, UniProt P10415).
T1 construct: purchased Calbiochem/Merck, Darmstadt, Germany
Description: BCL2 binding to bead-immobilized peptides. The conditions noted are these: iodoacetyl beads, elution buffer pH 2.8, protein stain. As for the experimental part:
In order to determine whether the BCL2 binding properties of the Nur77-derived peptide are maintained in the NurNRTN fusion peptide, the respective NurNRTN and NRTN peptides were coupled to iodoacetyl beads (Pierce Biotechnology, Inc., Rockford, Ill., USA). The beads were incubated with recombinant BCL2 (Calbiochem/Merck, Darmstadt, Germany) and washed with PBS and 0.5 M NaCl, 0.025 NaN3, 0.05% Tween20 to remove unbound protein. Specific binding of BCL2 to the immobilized NurNTRN fusion peptide was determined by eluting bound […] from the beads with elution buffer (pH 2.8), transfer of the eluted fraction to nitrocellulose (Invitrogen Corporation, Carlsbad, Calif., USA), and protein detection by means of the MemCode Reversible Protein Stain Kit (Pierce Biotechnology, Inc., Rockford, Ill., USA).

The subject of the next test is siRNA duplex. Description: gel-shift assay of peptide/siRNA complex formation. The test is classed as binding. The conditions noted are these: ethidium bromide staining. As for the experimental part: Gel-shift assays were performed by mixing […] siRNA duplex with the respective peptides in a given molar ratio in water. The complexes were formed for 1 hour at 37° C. and analyzed on a 2.5% agarose gel with ethidium bromide (run: 40 minutes at 125 V). For proteinase K treatment, 1 μl proteinase K was added to a standard reaction as indicated above.
Mechanisms that may explain transfection functionalities of charged peptides such as TAT or protamine include the formation of complexes between positively charged peptides and negatively charged nucleic acids. Such complexes enable peptide-mediated membrane-interacting and/or endosome escape functionalities to transfer the complexed nucleic acids into the cytosol of cells (Law, M. et al. (2008) Biotechnol. Prog. 24, 957-963) In order to address whether the above mechanism may apply to the NTRN-derived peptide as well gel-shift assays were performed (cf. FIG. 8). To this end, siRNA was co-incubated with increasing concentrations of peptide, followed by analyses of their migration pattern via gel electrophoresis.

A further test relates to human Aha1 mRNA. Nature of the test: siRNA transfection screening (siAha1 vs siGL3 control, bDNA assay of Aha1/GAPDH mRNA). The conditions noted are these: 20 μM; threshold value of FIG. 3. The test is classed as cell-based. As for the experimental part: For the quantification of cellular mRNA levels bDNA (branched DNA) assays were performed which enable the detection of individual mRNA levels. To this end, a defined number of the cells to be analyzed was seeded into 96-well plates and allowed to attach over night. On the next day, the cells were transfected with siRNA.
After further 24 hours, the mRNA species were quantified using the QuantiGene Plex 2.0 assay kit according to the manufacturers instructions (Affymetrix Inc., Santa Clara, Calif., USA). In brief, cell lysates were transferred to a capture plate in the presence of a gene-specific probe set and incubated at 53° C. over night. After washing, the wells were sequentially incubated at 53° C. with an amplifier agent and an alkaline phosphatase (AP)-linked label probe with a washing step in between. Subsequently, the luminescent AP substrate dioxitane was added and incubated for 30 min at 53° C. Luminescence was assayed using an InfiniteF200 luminescence reader (Tecan Austria GmbH, Groding, Austria).
In order to analyze the potential CPPs for their ability to transfect siRNA into mammalian cells an increasing peptide concentration (from 1 μM to 20 μM) was employed along with a constant siRNA concentration (100 nM). This range of peptide concentrations was used as it had been shown that positively charged peptides such as TAT are internalized into cells in ranges up to 10 μM and remain in intracellular membrane compartments without significant egress into the cytosol (Duchardt, F. et al. (2007) Traffic 8, 848-866). […] A concentration of 10 nM siRNA is in the saturation range as determined in control experiments using the DharmaFECT transfection reagent (Dharmacon, Inc., Lafayette, Colo., USA; data not shown).
The siRNA oligonucleotides employed were directed against human Aha1 mRNA (Panaretou, B. et al. (2002) Mol. Cell 10, 1307-1318) or against luciferase mRNA as a control.
Complexes of siRNA and the respective peptides were formed in OptiMEM medium and incubated for 15 minutes at room temperature. The cells were incubated in the presence of the complexes for three hours in OptiMEM. After washing, the cells were incubated for further 21 or 45 hours in normal growth medium. Thereafter, the levels of Aha1 mRNA and a reference mRNA (i.e. GAPDH mRNA) were measured by means of a bDNA assay. These assays were performed with cells that were transfected with siAHA1 and with a control siRNA (siGL3, luciferase), respectively.
As a measure for specific RNAi, the reduction of Aha1 mRNA levels relative to GAPDH mRNA levels was compared in siAHA1-transfected cells and siGL3-transfected cells. Specific siRNA mediated transfection causes a reduction in Aha1/GAPDH mRNA values in siAhA1-compared to siGL3-transfected cells. FIG. 3 depicts the screening readout of these assays: the Aha1/GAPDH mRNA values of non-transfected control cells were set to 100% (for each assay), and the Aha1/GAPDH mRNA values of siAha1- or siGL3-transfected cells were expressed relative to that. For this normalized data set, the differences between the respective Aha1/GAPDH mRNA levels of siAha1- and siGL3-transfected cells were determined. Specific peptides caused a significant reduction in siAha1 transfection without reducing siGL3 transfections, which results in positive difference values. The more pronounced these values are, the more specific RNAi is observed (cf. FIG. 3).

T1 sequence (P10415 whole entry): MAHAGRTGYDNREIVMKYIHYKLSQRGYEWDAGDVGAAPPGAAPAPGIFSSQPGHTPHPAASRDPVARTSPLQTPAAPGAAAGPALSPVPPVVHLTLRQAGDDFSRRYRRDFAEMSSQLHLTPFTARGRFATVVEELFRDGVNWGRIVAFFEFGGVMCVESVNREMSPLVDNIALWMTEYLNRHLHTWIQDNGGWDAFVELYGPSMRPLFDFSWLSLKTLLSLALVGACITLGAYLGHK

In the case of “FSRSLHSLLYDLGLRRLRQRRRLRRERVRA (NurNRTN peptide sequence)”, the “cell viability / induction of apoptosis” value in test [1] is given as “remarked cytotoxicity”. For the same sequence, the “BCL2 in eluates from peptide-coated beads” value in the test with recombinant BCL2 is listed as “BCL2 can be detected in eluates”.
Regarding “GRKKRRQRRRPPQ (Human immunodeficiency virus 1; TAT peptide sequence) [reference compound]”, in the test on siRNA duplex, the “complex formation with siRNA” value is reported as “forms complexes with the siRNA molecules”. The “difference of Aha1/GAPDH for luciferase siRNA and Aha1/GAPDH for Aha1 siRNA (Transfection)” value in the test with human Aha1 mRNA is 18%.
